Experimental data: ChEMBL document CHEMBL1201862, “PubChem BioAssay data set” (2004)
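Compound exposure: 48 hours, 5 concentrations, 96-well plates. Here, GI50 denotes the concentration required for 50% inhibition of growth.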 The source made the active and inactive calls. No stated cut-off is given here; in the data, active = GI50 up to about 1.1 µM and inactive = higher.

Legend:
Test in all cases: DTP human tumour cell line panel, 48 h
CAKI-1 = tested on: CAKI-1
HCT-116 = tested on: HCT-116
K562 = tested on: K562
MDA-MB-435 = tested on: MDA-MB-435
MOLT-4 = tested on: MOLT-4
NCI/ADR-RES = tested on: NCI/ADR-RES
OVCAR-4 = tested on: OVCAR-4
PC-3 = tested on: PC-3
SF-295 = tested on: SF-295
SF-539 = tested on: SF-539
SK-MEL-2 = tested on: SK-MEL-2
SK-OV-3 = tested on: SK-OV-3
SNB-19 = tested on: SNB-19
SNB-75 = tested on: SNB-75
UACC-62 = tested on: UACC-62
HCC 2998 = tested on: HCC 2998
HL-60 = tested on: HL-60

SMILES | GI50 (CAKI-1) | GI50 (HCT-116) | GI50 (K562) | GI50 (MDA-MB-435) | GI50 (MOLT-4) | GI50 (NCI/ADR-RES) | GI50 (OVCAR-4) | GI50 (PC-3) | GI50 (SF-295) | GI50 (SF-539) | GI50 (SK-MEL-2) | GI50 (SK-OV-3) | GI50 (SNB-19) | GI50 (SNB-75) | GI50 (UACC-62) | GI50 (HCC 2998) | GI50 (HL-60)
Cn1c(=O)c2nc(CSCc3ccccc3)[nH]c2n(C)c1=O | > 100 µM (inactive) | > 100 µM (inactive) | 78 µM (inactive) | > 100 µM (inactive) | > 100 µM (inactive) | > 100 µM (inactive) | > 100 µM (inactive) | > 100 µM (inactive) | 85.7 µM (inactive) | > 100 µM (inactive) | > 100 µM (inactive) | > 100 µM (inactive) | > 100 µM (inactive) | > 100 µM (inactive) | > 100 µM (inactive) |  | 
O=C1C(O)=C(Cl)C(=O)c2c(O)ccc(O)c21 | > 100 µM (inactive) | > 100 µM (inactive) | > 100 µM (inactive) |  | 10 µM (inactive) | > 100 µM (inactive) | > 100 µM (inactive) | > 100 µM (inactive) | > 100 µM (inactive) | > 100 µM (inactive) |  |  | > 100 µM (inactive) | > 100 µM (inactive) | > 100 µM (inactive) | > 100 µM (inactive) | > 100 µM (inactive)
COc1ccc2c(c1)CC[C@@H]1C2CC[C@]2(C)C(=O)N(C)C(=O)CC12 (some centres undefined) | > 100 µM (inactive) | > 100 µM (inactive) | > 100 µM (inactive) | > 100 µM (inactive) | > 100 µM (inactive) |  | > 100 µM (inactive) | > 100 µM (inactive) | 62.7 µM (inactive) | > 100 µM (inactive) |  | > 100 µM (inactive) | > 100 µM (inactive) | 52.5 µM (inactive) | > 100 µM (inactive) | > 100 µM (inactive) | 15.7 µM (inactive)
CC(C)c1ccc(/C=C2\CSCC3=C2N=C(S)NC3c2ccc(C(C)C)cc2)cc1 (centres undefined) | > 100 µM (inactive) | 44.9 µM (inactive) | 34.8 µM (inactive) |  | 29.6 µM (inactive) | > 100 µM (inactive) | > 100 µM (inactive) | 28.9 µM (inactive) | 75.9 µM (inactive) | > 100 µM (inactive) | > 100 µM (inactive) | > 100 µM (inactive) | > 100 µM (inactive) |  | 88.3 µM (inactive) | 67.6 µM (inactive) | 59.2 µM (inactive)
C[C@]12CC[C@H](O)CC1=CC[C@@H]1C2CC[C@]2(C)c3n[nH]nc3CC12 (some centres undefined) | > 100 µM (inactive) | > 100 µM (inactive) | 39.8 µM (inactive) | 36.2 µM (inactive) | > 100 µM (inactive) |  | > 100 µM (inactive) | > 100 µM (inactive) | > 100 µM (inactive) | > 100 µM (inactive) |  | > 100 µM (inactive) | > 100 µM (inactive) | 82 µM (inactive) | 96.6 µM (inactive) | > 100 µM (inactive) | 44.4 µM (inactive)
O=c1c(Cl)cc2nc3ccccc3sc-2c1Cl | 22.1 µM (inactive) | 16.2 µM (inactive) | 6.85 µM (inactive) | 2.82 µM (inactive) | 3.61 µM (inactive) | 21.5 µM (inactive) | 13.2 µM (inactive) |  | 16.9 µM (inactive) | 16.7 µM (inactive) | 13.7 µM (inactive) | 21 µM (inactive) | 17 µM (inactive) | 16.2 µM (inactive) | 11.5 µM (inactive) | 14.1 µM (inactive) | 10.6 µM (inactive)
Cc1cc2nc3[nH]c4c(Cl)cc(Cl)cc4c3nc2cc1C | > 100 µM (inactive) | > 100 µM (inactive) | > 100 µM (inactive) | > 100 µM (inactive) | 74 µM (inactive) | > 100 µM (inactive) | > 100 µM (inactive) | > 100 µM (inactive) | > 100 µM (inactive) | 36.5 µM (inactive) | > 100 µM (inactive) | > 100 µM (inactive) | > 100 µM (inactive) | 9.12 µM (inactive) | 84.7 µM (inactive) |  | > 100 µM (inactive)
CC(C)=CC1C(COC(=O)c2ccccc2Cl)C1(C)C (centres undefined) | 41.6 µM (inactive) | 49.3 µM (inactive) | 34 µM (inactive) | 85.1 µM (inactive) | 24.3 µM (inactive) | 41.2 µM (inactive) | 42.2 µM (inactive) | 41.3 µM (inactive) | 35.5 µM (inactive) |  | 46.7 µM (inactive) |  | > 100 µM (inactive) |  | > 100 µM (inactive) |  | 24.1 µM (inactive)
CC1=C(C(=O)NNC(=O)c2ccccc2O)CC(C(=O)NNC(=O)c2ccccc2O)=C(C)N1 | 0.993 µM (active) | 0.435 µM (active) | 0.338 µM (active) | 0.425 µM (active) | 0.522 µM (active) | 0.448 µM (active) | 9.4 µM (inactive) |  | 0.535 µM (active) | 0.796 µM (active) |  | 5.57 µM (inactive) | 0.839 µM (active) | 0.292 µM (active) | 0.389 µM (active) | 13.7 µM (inactive) | 0.512 µM (active)
